pKd: −log10 of the molar value. In brackets after ≈: the same amount, converted by molar mass. Square brackets hold non-standard residues; d marks the D form. Ends that are not written are not given here. Peptide text beside a SMILES is read from it. 1Nal = N[C@@H](Cc1cccc2ccccc12)C(=O)O; 3Pal = N[C@@H](Cc1cccnc1)C(=O)O
Assays:
[1] = tested on: E. coli 0111:B4 (smooth) bacteria; test: Radial diffusion bactericidal assay, E. coli 0111:B4; assay type: cell-based; conditions: radial diffusion; PROBIT analysis; E. coli O111:B4 (smooth)
[2] = tested on: Candida albicans; assay type: cell-based
[3] = tested on: Staphylococcus aureus; test: Radial diffusion bactericidal assay, Staphylococcus aureus; assay type: cell-based; conditions: radial diffusion; PROBIT analysis; S. aureus
[4] = tested on: rough mutant E. coli J5 bacteria; test: Radial diffusion bactericidal assay, E. coli J5; assay type: cell-based; conditions: radial diffusion; PROBIT analysis; E. coli J5 (rough)
Description: BPI proteolytic fragments produced according to Example 1 were screened for bactericidal effects using rough mutant E. coli J5 bacteria in a radial diffusion assay. Specifically, an overnight culture of E. coli J5 was diluted 1:50 into fresh tryptic soy broth and incubated for 3 hours at 37° C. to attain log phase growth of the culture. Bacteria were then pelleted at 3,000 rpm for 5 minutes in a Sorvall RT6000B centrifuge (Sorvall Instruments, Newton, Conn.). 5 mL of 10 mM sodium phosphate buffer (pH 7.4) was added and the preparation was re-pelleted. […] The bacteria were diluted to 4×10^6 CFU/mL in 10 mL of molten underlayer agarose (at approximately 45° C.) and inverted repeatedly to mix in 15 mL polypropylene tubes conventionally used for this purpose.
The entire contents of such tubes were then poured into a level square petri dish and distributed evenly by rocking the dish side-to-side. […] A series of wells were then punched into the hardened agarose using a sterile 3 mm punch attached to a vacuum apparatus. The punch was sterilized with 100% alcohol and allowed to air dry prior to use to avoid contaminating the bacterial culture.
5 or 10 μL of each of the BPI fragments were carefully pipetted into each well. As a negative control, dilution buffer (pH 8.3) was added to a separate well, and rBPI23 at concentrations of 5 μg/mL and 1 μg/mL were also added as positive controls. Each plate was incubated at 37° C. for 3 hours, and then 10 mL of molten overlayer agarose (at approximately 45° C.) was added into the level petri dish, allowed to harden and incubated overnight at 37° C. […] The bacterial zones were measured with a micrometer.

[5] = 3H-heparin binding assay (affinity and capacity); conditions: for Heparin Capacity: heparin bound at saturation; for pKd: read-out: Heparin Affinity
Description: Briefly, each fragment was added to wells of a 96-well microtiter plate having a polyvinylidene difluoride membrane (Immunobilon-P, Millipore, Bedford, Mass.) disposed at the bottom of the wells. […] Positive control wells contained varying amounts of rBPI23. […] DuPont-NEN, Wilmington, Del.) were made in the blocking buffer and incubated in the BPI peptide-containing wells for one hour at 4° C. The unbound heparin was aspirated and the wells were washed three times with blocking buffer, dried and removed for quantitation in a liquid scintillation counter (Model 1217, LKB, Gaithersburg, Md.). Although BSA in the blocking buffer did show a low affinity and capacity to bind heparin, this was considered physiologically irrelevant and the background was routinely subtracted from the test compound signal.

## CC[C@H](C)[C@H](NC(=O)[C@H](CC(C)C)NC(=O)[C@H](Cc1c[nH]c2ccccc12)NC(=O)CNC(=O)[C@@H](NC(=O)[C@H](CCCCN)NC(=O)[C@H](CO)NC(=O)[C@H](CCCCN)NC(=O)[C@H](CCCCN)NC(=O)[C@H](CC(C)C)NC(=O)[C@H](Cc1ccccc1)NC(=O)[C@H](CCCNC(=N)N)NC(=O)[C@H](Cc1cccc2ccccc12)NC(=O)[C@H](CCC(N)=O)NC(=O)[C@H](C)NC(=O)[C@H](CCCCN)NC(=O)[C@H](Cc1cccc2ccccc12)NC(=O)[C@@H](N)CCCCN)C(C)C)C(=O)N[C@@H](CCC(N)=O)C(=O)N[C@@H](CC(C)C)C(=O)N[C@@H](Cc1c[nH]c2ccccc12)C(=O)N[C@@H](Cc1c[nH]cn1)C(=O)N[C@@H](CCCCN)C(=O)N[C@@H](CCCCN)C(N)=O [BPI.159] (H-K[1Nal]KAQ[1Nal]RFLKKSKVGWLIQLWHKK-NH2; N-terminus and C-terminus assumed)
[1]
  pmol added to well to achieve a 30 mm^2 bactericidal zone, E. coli O111:B4: 152,678.66 pmol
[2]
  MIC C. alb: 50.00 µg/mL (≈ 15.9 µM)
[3]
  pmol added to well to achieve a 30 mm^2 bactericidal zone, S. aureus: 14,387.00 pmol
[4]
  pmol added to well to achieve a 30 mm^2 bactericidal zone, E. coli J5: 765.43 pmol

## KSKVKALIQLFHKK [BPI.161]
[1]
  pmol added to well to achieve a 30 mm^2 bactericidal zone, E. coli O111:B4: b (no detectable activity up to 5 μg/well)
[2]
  MIC C. alb: 3.13 µg/mL
[3]
  pmol added to well to achieve a 30 mm^2 bactericidal zone, S. aureus: 100,476.32 pmol
[4]
  pmol added to well to achieve a 30 mm^2 bactericidal zone, E. coli J5: 1,201.79 pmol

## CC(C)C[C@H](NC(=O)[C@H](Cc1ccccc1)NC(=O)[C@H](CCCNC(=N)N)NC(=O)[C@H](Cc1cccc2ccccc12)NC(=O)[C@H](Cc1cccc2ccccc12)NC(=O)[C@H](C)NC(=O)[C@H](CCCCN)NC(=O)[C@H](Cc1c[nH]c2ccccc12)NC(=O)[C@H](CCCCN)NC(=O)[C@H](CCCCN)NC(=O)[C@H](CC(C)C)NC(=O)[C@H](Cc1ccccc1)NC(=O)[C@H](CCCNC(=N)N)NC(=O)[C@H](CCCCN)NC(=O)[C@H](CCC(N)=O)NC(=O)[C@H](C)NC(=O)[C@H](CCCCN)NC(=O)[C@H](Cc1c[nH]c2ccccc12)NC(=O)[C@@H](N)CCCCN)C(=O)N[C@@H](CCCCN)C(=O)O [BPI.155] (H-KWKAQKRFLKKWKA[1Nal][1Nal]RFLK-OH; N-terminus and C-terminus assumed)
[1]
  pmol added to well to achieve a 30 mm^2 bactericidal zone, E. coli O111:B4: 53,027,986.44 pmol
[2]
  MIC C. alb: >100.00 µg/mL
[3]
  pmol added to well to achieve a 30 mm^2 bactericidal zone, S. aureus: 5,530,185,440.73 pmol
[4]
  pmol added to well to achieve a 30 mm^2 bactericidal zone, E. coli J5: 5,912.26 pmol

## CC(C)C[C@H](NC(=O)[C@H](Cc1ccccc1)NC(=O)[C@H](CCCNC(=N)N)NC(=O)[C@H](CCCCN)NC(=O)[C@H](CCC(N)=O)NC(=O)[C@H](C)NC(=O)[C@H](CCCCN)NC(=O)[C@H](Cc1c[nH]c2ccccc12)NC(=O)[C@H](CCCCN)NC(=O)[C@H](CCCCN)NC(=O)[C@H](CC(C)C)NC(=O)[C@H](Cc1ccccc1)NC(=O)[C@H](CCCNC(=N)N)NC(=O)[C@H](Cc1cccc2ccccc12)NC(=O)[C@H](Cc1cccc2ccccc12)NC(=O)[C@H](C)NC(=O)[C@H](CCCCN)NC(=O)[C@H](Cc1c[nH]c2ccccc12)NC(=O)[C@@H](N)CCCCN)C(=O)N[C@@H](CCCCN)C(=O)O [BPI.154] (H-KWKA[1Nal][1Nal]RFLKKWKAQKRFLK-OH; N-terminus and C-terminus assumed)
[1]
  pmol added to well to achieve a 30 mm^2 bactericidal zone, E. coli O111:B4: 2,977.76 pmol
[2]
  MIC C. alb: >100.00 µg/mL
[3]
  pmol added to well to achieve a 30 mm^2 bactericidal zone, S. aureus: 30,052,224.71 pmol
[4]
  pmol added to well to achieve a 30 mm^2 bactericidal zone, E. coli J5: 197.00 pmol

## CC[C@H](C)[C@H](NC(=O)[C@H](CC(C)C)NC(=O)[C@H](Cc1c[nH]c2ccccc12)NC(=O)CNC(=O)[C@@H](NC(=O)[C@H](CCCCN)NC(=O)[C@H](CO)NC(=O)[C@@H](N)CCCCN)C(C)C)C(=O)N[C@@H](CCC(N)=O)C(=O)N[C@@H](CC(C)C)C(=O)N[C@@H](Cc1ccccc1)C(=O)N[C@@H](Cc1cccc2ccccc12)C(=O)N[C@@H](CCCCN)C(=O)N[C@@H](Cc1cccc2ccccc12)C(=O)O [BPI.146] (H-KSKVGWLIQLF[1Nal]K[1Nal]-OH; N-terminus and C-terminus assumed)
[1]
  pmol added to well to achieve a 30 mm^2 bactericidal zone, E. coli O111:B4: b (no detectable activity up to 5 μg/well)
[2]
  MIC C. alb: >50.00 µg/mL
[3]
  pmol added to well to achieve a 30 mm^2 bactericidal zone, S. aureus: b (no detectable activity up to 5 μg/well)
[4]
  pmol added to well to achieve a 30 mm^2 bactericidal zone, E. coli J5: b (no detectable activity up to 5 μg/well)

## CC(C)C[C@H](NC(=O)[C@H](Cc1ccccc1)NC(=O)[C@H](CCCNC(=N)N)NC(=O)[C@H](Cc1cccc2ccccc12)NC(=O)[C@H](Cc1cccc2ccccc12)NC(=O)[C@H](C)NC(=O)[C@H](CCCCN)NC(=O)[C@H](Cc1c[nH]c2ccccc12)NC(=O)[C@H](CCCCN)NC(=O)[C@H](CCCCN)NC(=O)[C@H](CC(C)C)NC(=O)[C@H](Cc1ccccc1)NC(=O)[C@H](CCCNC(=N)N)NC(=O)[C@H](Cc1cccc2ccccc12)NC(=O)[C@H](Cc1cccc2ccccc12)NC(=O)[C@H](C)NC(=O)[C@H](CCCCN)NC(=O)[C@H](Cc1c[nH]c2ccccc12)NC(=O)[C@@H](N)CCCCN)C(=O)N[C@@H](CCCCN)C(=O)O [BPI.156] (H-KWKA[1Nal][1Nal]RFLKKWKA[1Nal][1Nal]RFLK-OH; N-terminus and C-terminus assumed)
[2]
  MIC C. alb: >100.00 µg/mL

## IKISGKAβ-(3-pyridyl)KAQKRFLK (IKISGK[3Pal]KAQKRFLK) [BPI.70]
[5]
  Heparin Capacity: 59.2 ng
  pKd: 6.84
[1]
  pmol added to well to achieve a 30 mm^2 bactericidal zone, E. coli O111:B4: b (no detectable activity up to 5 μg/well)
[3]
  pmol added to well to achieve a 30 mm^2 bactericidal zone, S. aureus: b (no detectable activity up to 5 μg/well)
[4]
  pmol added to well to achieve a 30 mm^2 bactericidal zone, E. coli J5: b (no detectable activity up to 5 μg/well)

## IKKRAISFLGKKWQK [BPI.75]
[5]
  Heparin Capacity: 119.8 ng
  pKd: 7.02
[1]
  pmol added to well to achieve a 30 mm^2 bactericidal zone, E. coli O111:B4: b (no detectable activity up to 5 μg/well)
[3]
  pmol added to well to achieve a 30 mm^2 bactericidal zone, S. aureus: 9,508.60 pmol
[4]
  pmol added to well to achieve a 30 mm^2 bactericidal zone, E. coli J5: 2,708.40 pmol

## KSKVKWLIKLFFKFKSKVKWLIKLFFKF [BPI.101]
[5]
  Heparin Capacity: 210.9 ng
  pKd: 5.72
[1]
  pmol added to well to achieve a 30 mm^2 bactericidal zone, E. coli O111:B4: 3,631.70 pmol
[3]
  pmol added to well to achieve a 30 mm^2 bactericidal zone, S. aureus: 4,388.20 pmol
[4]
  pmol added to well to achieve a 30 mm^2 bactericidal zone, E. coli J5: 1,329.30 pmol

## CC[C@H](C)[C@H](N)C(=O)N[C@@H](CCCCN)C(=O)N[C@H](C(=O)N[C@@H](CO)C(=O)NCC(=O)N[C@@H](CCCCN)C(=O)N[C@@H](Cc1c[nH]c2ccccc12)C(=O)N[C@@H](CCCCN)C(=O)N[C@@H](C)C(=O)N[C@@H](Cc1cccc2ccccc12)C(=O)N[C@@H](Cc1cccc2ccccc12)C(=O)N[C@@H](CCCNC(=N)N)C(=O)N[C@@H](Cc1ccccc1)C(=O)N[C@@H](CC(C)C)C(=O)N[C@@H](CCCCN)C(=O)N[C@@H](CCCCN)C(=O)N[C@@H](CO)C(=O)N[C@@H](CCCCN)C(=O)N[C@H](C(=O)NCC(=O)N[C@@H](Cc1c[nH]c2ccccc12)C(=O)N[C@@H](CC(C)C)C(=O)N[C@H](C(=O)N[C@@H](CCC(N)=O)C(=O)N[C@@H](CC(C)C)C(=O)N[C@@H](Cc1ccccc1)C(=O)N[C@@H](Cc1c[nH]cn1)C(=O)N[C@@H](CCCCN)C(=O)N[C@@H](CCCCN)C(=O)O)[C@@H](C)CC)C(C)C)[C@@H](C)CC [BPI.158] (H-IKISGKWKA[1Nal][1Nal]RFLKKSKVGWLIQLFHKK-OH; N-terminus and C-terminus assumed)
[2]
  MIC C. alb: >100.00 µg/mL

## KSKVKWLIKLFHKK [BPI.100]
[5]
  Heparin Capacity: 314.0 ng
  pKd: 5.53
[1]
  pmol added to well to achieve a 30 mm^2 bactericidal zone, E. coli O111:B4: 7,342.90 pmol
[3]
  pmol added to well to achieve a 30 mm^2 bactericidal zone, S. aureus: b (no detectable activity up to 5 μg/well)
[4]
  pmol added to well to achieve a 30 mm^2 bactericidal zone, E. coli J5: 407.74 pmol

## KWKAQWRFLKKWKAQWRFLKKWKAQWRFLK [BPI.99]
[5]
  Heparin Capacity: 971.4 ng
  pKd: 5.04
[1]
  pmol added to well to achieve a 30 mm^2 bactericidal zone, E. coli O111:B4: 60,037.52 pmol
[3]
  pmol added to well to achieve a 30 mm^2 bactericidal zone, S. aureus: 37,942,676.00 pmol
[4]
  pmol added to well to achieve a 30 mm^2 bactericidal zone, E. coli J5: 722.90 pmol

## IAISGKWKAQKRFLA [BPI.60]
[5]
  Heparin Capacity: 120.3 ng
  pKd: 7.19
[1]
  pmol added to well to achieve a 30 mm^2 bactericidal zone, E. coli O111:B4: b (no detectable activity up to 5 μg/well)
[3]
  pmol added to well to achieve a 30 mm^2 bactericidal zone, S. aureus: b (no detectable activity up to 5 μg/well)
[4]
  pmol added to well to achieve a 30 mm^2 bactericidal zone, E. coli J5: 3,782.80 pmol

— patent US20040023884A1, “Biologically active peptides from functional domains of bactericidal/permeability-increasing protein and uses thereof” (priority 1993, published 2004)
